# Source: US20210038559A1, “CANNABINOIDS AND DERIVATIVES FOR PROMOTING IMMUNOGENICITY OF TUMOR AND INFECTED CELLS” (priority 2018, published 2021)
# Test system: MHC-I expression by COLO 205 cells
# Experiment: cells
# Assay type: cell-based, human
# Settings: not given
# Protocol: A panel of synthetic cannabinoids (Cayman Chemical, #9002891) was tested for MHC class I-inducing capability in COLO 205 cells as described above. COLO 205 cells were treated with the compounds at a concentration of 35 μM and evaluated for cell surface MHC class I expression after 48 hours. Cells were harvested, stained with MHC-I mAb W6/32 (Thermo Fisher). MHC-I expression was determined by flow cytometry.
row,Compound,Induction Fold [Fold]
1,1-naphthalenyl[1-(4-penten-1-yl)-1H-indol-3-yl]-methanone [Example 73],2.68
2,1-naphthalenyl[5-(1-naphthalenyl)-1-pentyl-1H-pyrrol-3-yl]-methanone [Example 214],1.80
3,"CCCCCn1cc(C(=O)Cc2cccc(OC)c2)c2ccccc21 [Example 28, 2-(3-methoxyphenyl)-1-(1-pentyl-1H-indol-3-y1)-ethanone]",3.42

# Same assay, conditions: Homo sapiens, COLO 205, 48 h, MHC-I expression, COLO 205 cells, compounds at 35 μM, 48 hours, flow cytometry (W6/32); read-out: Induction Fold
row,Compound,fold induction at 35 µM
1,"COc1cccc2c(C(=O)N3CCN(C)C(C)C3)cn(CC3CCCCC3)c12 (racemic) [Example 277, [1-(cyclohexylmethyl)-7-methoxy-1H-indol-3-yl](3,4-dimethyl-1-piperazinyl)-methanone]",1.5
2,"CCCCCC(C)(C)c1ccc([C@H]2CCC[C@@H](O)C2)c(O)c1 (relative stereo) [Example 209, cis-5-(1,1-dimethylhexyl)-2-(3-hydroxycyclohexyl)-phenol]",1.84
3,"CCCCCCCC(C)(C)c1ccc([C@@H]2CCC[C@H](O)C2)c(O)c1 (relative stereo) [Example 241, rel-5-(1,1-dimethyloctyl)-2-[(1R,3S)-3-hydroxycyclohexyl]-phenol]",1.68
4,"CCCCCCC(C)(C)c1ccc([C@@H]2CCC[C@H](O)C2)c(O)c1 (relative stereo) [Example 353, rel-5-(1,1-dimethylheptyl)-2-[(1R,3S)-3-hydroxycyclohexyl]-phenol]",1.06
5,"CCCCCCCCC(C)(C)c1ccc([C@H]2CCC[C@@H](O)C2)c(O)c1 (relative stereo) [Example 374, cis-5-(1,1-dimethylnonyl)-2-(3-hydroxycyclohexyl)-phenol]",0.49
6,"CCCCCCC(C)(C)c1ccc([C@@H]2C[C@@H](O)CC[C@H]2CCCO)c(O)c1 (relative stereo) [Example 375, rel-2-((1R,2R,5S)-5-hydroxy-2-(3-hydroxypropyl)cyclohexyl)-5-(2-methyloctan-2-yl)phenol]",0.33
7,"CCCCCn1nc(C(=O)N[C@@H](CCCC)C(N)=O)c2ccccc21 (single isomer, unassigned) [Example 11]",4.56
8,"CCCCCn1nc(C(=O)N[C@H](C(N)=O)[C@@H](C)CC)c2ccccc21 (single isomer, unassigned) [Example 26]",3.49
9,"CCC(C(N)=O)N(C)C(=O)c1nn(Cc2ccc(F)cc2)c2ccccc12 (single isomer, unassigned) [Example 135, N-(1-amino-1-oxobutan-2-yl)-1-(4-fluorobenzyl)-N-methyl-1H-indazole-3-carboxamide]",2.23
10,"CCCCCn1nc(C(=O)NC(C)(C(N)=O)C(C)C)c2ccccc21 (single isomer, unassigned) [Example 151, N-(1-amino-2,3-dimethyl-1-oxobutan-2-yl)-1-pentyl-1H-indazole-3-carboxamide]",2.13
11,"CCCC(NC(=O)c1nn(Cc2ccc(F)cc2)c2ccccc12)C(N)=O (single isomer, unassigned) [Example 169, N-(1-amino-1-oxopentan-2-yl)-1-(4-fluorobenzyl)-1H-indazole-3-carboxamide]",2.01
12,"CCC(C)(NC(=O)c1nn(Cc2ccc(F)cc2)c2ccccc12)C(N)=O (single isomer, unassigned) [Example 287, N-(1-amino-2-methyl-1-oxobutan-2-yl)-1-(4-fluorobenzyl)-1H-indazole-3-carboxamide]",1.45
13,"CC[C@H](C)[C@H](NC(=O)c1nn(CCCCCF)c2ccccc12)C(N)=O (single isomer, unassigned) [Example 298]",1.42
14,"CC(C)(NC(=O)c1c2ccccc2nn1CCCCC#N)c1ccccc1 (single isomer, unassigned) [Example 299, 2-(4-cyanobutyl)-N-(2-phenylpropan-2-yl)-2H-indazole-3-carboxamide]",1.42
15,"O=C(NC1C2CC3CC(C2)CC1C3)c1nn(CC2CCOCC2)c2ccccc12 (single isomer, unassigned) [Example 352, N-(adamantan-2-yl)-1-((tetrahydro-2H-pyran-4-yl)methyl)-1H-indazole-3-carboxamide]",1.07
16,"O=C(NC12CC3CC(CC(C3)C1)C2)c1nn(CC2CCOCC2)c2ccccc12 (single isomer, unassigned) [Example 361, 1-[(tetrahydro-2H-pyran-4-yl)methyl]-N-tricyclo[3.3.1.1^3,7]dec-1-yl-1H-indazole-3-carboxamide]",0.95
17,"CN1CCCCC(Cn2cc(C(=O)c3cccc4ccccc34)c3ccccc32)C1 (stereo not drawn) [Example 6, (1-((1-methylazepan-3-yl)methyl)-1H-indol-3-yl)(naphthalen-1-yl)methanone]",5.6
18,"CN1CCCCC1Cn1cc(C(=O)c2cc([N+](=O)[O-])ccc2I)c2ccccc21 (stereo not drawn) [Example 7, (2-iodo-5-nitrophenyl)-(1-(1-methylpiperidin-2-ylmethyl)-1H-indol-3-yl)methanone]",5.59
19,"O=C(Oc1ccnc2ccccc12)c1cn(CC2CCCCC2)c2ccccc12 [Example 9, quinolin-4-yl 1-(cyclohexylmethyl)-1H-indole-3-carboxylate]",5.41

row,Compound,fold induction at 35 µM
1,"CCCCCn1cc(C(=O)Oc2ccnc3ccccc23)c2ccccc21 [Example 10, quinolin-4-yl 1-pentyl-1H-indole-3-carboxylate]",5.02
2,"O=C(Oc1ccc2cccnc2c1)c1cn(CCCCCF)c2ccccc12 [Example 12, quinolin-7-yl 1-(5-fluoropentyl)-1H-indole-3-carboxylate]",4.34
3,"O=C(c1ccc2ccccc2c1)c1cn(CCN2CCOCC2)c2ccccc12 [Example 13, [1-[2-(4-morpholinyl)ethyl]-1H-indol-3-yl]-2-naphthalenyl-methanone]",4.3
4,"COC(=O)[C@@H](NC(=O)c1nn(CC2CCCCC2)c2ccccc12)C(C)C [Example 14, N-[[1-(cyclohexylmethyl)-1H-indazol-3-yl]carbonyl]-L-valine, methyl ester]",4.2
5,"COC(=O)[C@@H](NC(=O)c1nn(Cc2ccc(F)cc2)c2ccccc12)C(C)C [Example 15, N-[[1-[(4-fluorophenyl)methyl]-1H-indazol-3-yl]carbonyl]-L-valine, methyl ester]",4.2
6,"O=C(Oc1cccc2ccncc12)c1cn(CCCCCF)c2ccccc12 [Example 16, isoquinolin-8-yl 1-(5-fluoropentyl)-1H-indole-3-carboxylate]",4.19
7,"CCCCCn1cc(C(=O)Oc2cccc3ccncc23)c2ccccc21 [Example 17, isoquinolin-8-yl 1-pentyl-1H-indole-3-carboxylate]",4.11
8,"CCCCCn1cc(C(=O)Oc2ccc3cccnc3c2)c2ccccc21 [Example 18, quinolin-7-yl 1-pentyl-1H-indole-3-carboxylate]",4.08
9,"O=C(Oc1cncc2ccccc12)c1cn(CCCCCF)c2ccccc12 [Example 19, isoquinolin-4-yl 1-(5-fluoropentyl)-1H-indole-3-carboxylate]",4.06
10,"CCCCCn1cc(C(=O)c2ccccc2OC)c2ccccc21 [Example 20, (2-methoxyphenyl)(1-pentyl-1H-indol-3-yl)-methanone]",3.98
11,"COc1ccc(C(=O)c2cn(CCN3CCOCC3)c3ccccc23)c2ccccc12 [Example 21, (4-methoxy-1-naphthalenyl)[1-[2-(4-morpholinyl)ethyl]-1H-indol-3-yl]-methanone]",3.85
12,"CCCCn1cc(C(=O)c2c(C)ccc3ccccc23)c2ccccc21 [Example 22, (1-butyl-1H-indol-3-yl)(2-methylnaphthalen-1-yl)methanone]",3.84
13,"CN1CCCC[C@@H]1Cn1cc(C(=O)c2cc([N+](=O)[O-])ccc2I)c2ccccc21 [Example 23, (2-iodo-5-nitrophenyl)[1-[[(2R)-1-methyl-2-piperidinyl]methyl]-1H-indol-3-yl]methanone]",3.64
14,"CN1CCCCC(n2cc(C(=O)c3ccccc3I)c3ccccc32)C1 (stereo not drawn) [Example 24, (2-iodophenyl)(1-(1-methylazepan-3-yl)-1H-indol-3-yl)methanone]",3.64
15,"CCCCCn1cc(C(=O)c2c(C)ccc3ccccc23)c2ccccc21 [Example 25, (2-methylnaphthalen-1-yl)(1-pentyl-1H-indol-3-yl)methanone]",3.6
16,"Cc1c(C(=O)c2ccccc2)c(N)c(-c2ccccc2)n1Cc1ccc(Cl)cc1 [Example 27, [4-amino-1-[(4-chlorophenyl)methyl]-2-methyl-5-phenyl-1H-pyrrol-3-yl]phenyl-methanone]",3.43
17,"NC(=O)[C@H](Cc1ccccc1)NC(=O)c1nn(CC2CCCCC2)c2ccccc12 [Example 29, N-[(1S)-2-amino-2-oxo-1-(phenylmethyl)ethyl]-1-(cyclohexylmethyl)-1H-Indazole-3-carboxamide]",3.41
18,"O=C(Oc1ccc2ncccc2c1)c1cn(CCCCCF)c2ccccc12 [Example 30, quinolin-6-yl 1-(5-fluoropentyl)-1H-indole-3-carboxylate]",3.4

# Same assay, conditions: MHC-I expression, COLO 205 cells, compounds at 35 μM, 48 hours, flow cytometry (W6/32)
row,Compound,Induction Fold [Fold]
1,"CCCCCCCC(C)(C)c1ccc([C@H]2CCC[C@H](O)C2)c(O)c1 (relative stereo) [Example 301, rel-2-[(1S,3S)-3-hydroxycyclohexyl)]-5-(2-methylnonan-2-yl)phenol]",1.41
2,"CCOC(=O)[C@@H](NC(=O)c1nn(Cc2ccc(F)cc2)c2ccccc12)C(C)C [Example 8, ethyl (1-(4-fluorobenzyl)-1H-indazole-3-carbonyl)-1-valinate]",5.50
